Several values for one entry are separate records, joined by “and”; a condition that tells them apart may be missing. Equal values may be shown once. Read-outs that look alike come from different tables or passages of the source. Where a SMILES comes first, the peptide text is derived from it. Bridges are numbered along the chain shown (N, C = ends).
Experiments:
[1] = target: T1, mouse KOR (Mus musculus, UniProt P33534)
[2] = target: T1, mouse KOR; assay: biochemical
[3] = target: T1, mouse KOR; assay: cell-based; details: for Emax: HEK293, read-out: Emax cAMP inhibition
[4] = target: T1, mouse KOR; assay type: cell-based; parameters: expressed in transfected cells; host or cells: HEK293 (transient, jetPRIME)
[5] = tested on: human T-cell proliferation; parameters: method as in PMID 23840803; details: cited from earlier work
[6] = tested on: untransfected HEK 293 cells; assay type: cell-based

T1 sequence (P33534 whole entry): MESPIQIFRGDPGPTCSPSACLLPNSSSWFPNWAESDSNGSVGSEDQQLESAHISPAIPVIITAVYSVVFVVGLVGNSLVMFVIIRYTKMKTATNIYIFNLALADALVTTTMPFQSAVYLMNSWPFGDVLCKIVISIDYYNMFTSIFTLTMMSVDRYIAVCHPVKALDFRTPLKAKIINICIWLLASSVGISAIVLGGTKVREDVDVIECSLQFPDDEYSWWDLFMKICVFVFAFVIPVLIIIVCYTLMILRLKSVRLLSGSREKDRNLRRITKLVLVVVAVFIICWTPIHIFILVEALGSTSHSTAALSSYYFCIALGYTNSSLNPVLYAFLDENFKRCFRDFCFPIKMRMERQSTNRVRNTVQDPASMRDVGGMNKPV

SMILES: CC[C@H]1CN2CCc3cc(OC)c(OC)cc3[C@@H]2C[C@@H]1C[C@H]1NCCc2cc(OC)c(OC)cc21 [Emetine]
- displacement of [3H]-DPN ([1]; up to concentrations of 10 μM, 1 nM [3H]-DPN): did not displace the radioligand

SMILES: CC(C)C[C@@H]1NC(=O)CNC(=O)[C@H](CC(N)=O)NC(=O)[C@H](CCCNC(=N)N)NC(=O)[C@H]([C@@H](C)O)NC(=O)[C@@H]2CSSC[C@@H]3NC(=O)[C@H]([C@@H](C)O)NC(=O)CNC(=O)CNC(=O)[C@H](C(C)C)NC(=O)[C@@H]4CSSC[C@H](NC(=O)[C@H](CCCCN)NC(=O)[C@H](CSSC[C@H](NC(=O)[C@H](C(C)C)NC(=O)[C@@H]5CCCN5C1=O)C(=O)NCC(=O)N[C@@H](CCC(=O)O)C(=O)N[C@@H]([C@@H](C)O)C(=O)N4)NC(=O)CNC(=O)[C@@H]1CCCN1C(=O)[C@H]([C@@H](C)O)NC(=O)[C@H](CC(N)=O)NC3=O)C(=O)N[C@@H](CO)C(=O)N[C@@H](Cc1c[nH]c3ccccc13)C(=O)N1CCC[C@H]1C(=O)N[C@@H](C(C)C)C(=O)N2 [T20K, [T20K]kalata B1] (cyclo(CGETCVGGTCNTPGCKCSWPVCTRNGLPV); disulfide 1-15, 5-17, 10-22)
- Ki [2]: 2000 nM and ~2000 nM
- increase in basal cAMP production [3]: ~50%
- increase in efficacy of dyn A1–13 (cAMP) [3]: 30–60%
- EC50 ([3]; EC50 cAMP inhibition): 24000 nM and ~24000 nM
- Emax [3]: 105 ± 5%
- β-arrestin-2 recruitment (interaction of β-arrestin-2 and KOR) [4]: no interaction of β-arrestin-2 and KOR was detected
- potency to suppress lymphocyte proliferation [5]: 2000 to 4000 nM

SMILES: CC[C@H](C)[C@@H]1NC(=O)[C@H](C(C)C)NC(=O)[C@H]([C@@H](C)O)NC(=O)[C@H](CO)NC(=O)[C@H](Cc2ccccc2)NC(=O)[C@@H]2CSSC[C@@H]3NC(=O)[C@H](C(C)C)NC(=O)[C@H](CCCCN)NC(=O)[C@H](CC(N)=O)NC(=O)[C@H](CCCCN)NC(=O)[C@@H]4CSSC[C@H](NC(=O)[C@H](CO)NC(=O)[C@H](CCC(=O)O)NC(=O)CNC(=O)[C@H](CSSC[C@H](NC(=O)CNC1=O)C(=O)N[C@@H](CO)C(=O)N4)NC(=O)[C@@H]1CCCN1C(=O)[C@H]([C@@H](C)CC)NC(=O)[C@H](C(C)C)NC(=O)CNC(=O)[C@H](CC(N)=O)NC(=O)[C@H](CCCNC(=N)N)NC(=O)[C@H](Cc1ccc(O)cc1)NC3=O)C(=O)N[C@@H](C(C)C)C(=O)N[C@@H](Cc1ccccc1)C(=O)N[C@@H]([C@@H](C)CC)C(=O)N1CCC[C@H]1C(=O)N2 [caripe 10] (cyclo(CFSTVIGCSCKNKVCYRNGVIPCGESCVFIP); disulfide 1-15, 8-23, 10-27)
- Ki [2]: 1200 ± 300 nM
- EC50 ([3]; EC50 cAMP inhibition): 60200 nM and ~60000 nM
- Emax [3]: 144 ± 12%
- displacement of [3H]-DPN by cyclotides [1]: strongest effect

SMILES: CC[C@H](C)[C@H](NC(=O)[C@H](CCCNC(=N)N)NC(=O)[C@H](CCCNC(=N)N)NC(=O)[C@H](CC(C)C)NC(=O)[C@H](Cc1ccccc1)NC(=O)CNC(=O)CNC(=O)[C@@H](N)Cc1ccc(O)cc1)C(=O)N[C@@H](CCCNC(=N)N)C(=O)N1CCC[C@H]1C(=O)N[C@@H](CCCCN)C(=O)N[C@@H](CC(C)C)C(=O)N[C@@H](CCCCN)C(N)=O [dyn A1–13, Dyn A1–13 amide, reference compound]
- changes in cAMP levels [6]: no changes in cAMP levels were observed
- cAMP inhibition Emax ± SD [3]: 115.5 ± 20.0% and 122.0 ± 21.6% and 133.2 ± 41.9 % and 160.3 ± 47.4 % and 158.8 ± 54.0 %
- EC50 ([3]; read-out: cAMP inhibition EC50 ± SD): 8.8 ± 2.4 nM
- EC50 ([4]; read-out: EC50 β-arrestin-2 recruitment): 159 ± 92.4 nM
- Ki ([1]; read-out: Ki ± SD): 0.4 nM and 0.3 nM

Reference: publication PMC8406418 (Journal of Natural Products, 2021)
